Experimental data from patent US20060029563A1, “Cutanceous metabolic bio-activator” (Jean-Noel Thorel, priority 2002, published 2006).
Where a SMILES comes first, the peptide text is derived from it. [ ]: non-standard residue; d: D form. Cit = NC(=O)NCCC[C@H](N)C(=O)O

Experiments:
[1] = test system: secretion of endothelin-1 by normal human keratinocytes; experiment: endothelin-1 secretion by keratinocytes (ELISA), nonirradiated or after UV B irradiation; assay type: cell-based; settings: for increase in the basal secretion of endothelin-1 compared with the water control: nonirradiated
Description: The trial is carried out on an in vitro culture of normal human keratinocytes seeded at a density of 10^5 cells/well in 6-well plates.
The keratinocytes, seeded in 6-well plates at a density of 10^5 cells/well, are cultured in standard medium (Epilife Sigma) for 48 h. Before irradiation, the culture medium is removed, the cells are rinsed with PBS buffer, and 1 ml thereof is left in contact with the cells for the irradiation. The keratinocytes are subjected to a UV B irradiation (312 nm) of 20 mJ/cm^2. An identical nonirradiated condition is realized in parallel.
After irradiation (and on the nonirradiated parallel), the PBS is removed and the cells are placed under the various conditions studied: • control of water in the culture medium, […]
Each condition is realized in triplicate.
After contact for 24 h or 48 h after irradiation, the conditioned culture supernatants are recovered. The amount of endothelin-1 secreted by the keratinocytes is measured on 100 μl of supernatant by means of an ELISA technique (R&D Systems, Abingdon, UK). The endothelin-1 levels are calculated by means of the standard curve prepared with synthesized human endothelin-1. The results are expressed in pg of endothelin-1 standardized with respect to the protein concentration (pg ET-1/mg of proteins).

HaCaT cells = experiment: growth of HaCaT cells, WST-1 conversion method; assay type: cell-based, human
Description: The objective of this trial is to evaluate the effect of the combination ATP+peptides, added to a culture medium, on the growth of an immortalized line of human […], HaCaT cells.
The study is carried out on a culture prepared in the standard culture medium for HaCaT cells, DMEM (Sigma) in the presence of fetal calf serum (SVF) at 2 or 10%.
The HaCaT cells are seeded at low density in a 96-well plate in the standard medium (DMEM+10% SVF) and grow for 24 h after seeding in this medium.
On the 2nd day, the cells are placed under the various conditions studied.
The test concentrations in terms of ATP, β-alanyl-L- histidine (Carnosine) and L-citrullyl-L-arginine (exsy- algine) are determined subsequent to preliminary cytotoxicity studies.
The following conditions are prepared: • A control condition: culture medium alone+SVF • A condition consisting of β-alanyl-L-histidine alone at 0.5%. • A condition consisting of L-citrullyl-L-arginine are known at 0.5%. • A condition consisting of ATP alone at 1 μg/ml. • A condition consisting of ATP (1 μg/ml)+β-alanyl-L-histidine (0.5%). • A condition consisting of ATP (1 μg/ml)+L-citrullyl-L-arginine (0.5%) • A condition consisting of ATP (1 μg/ml)+β-alanyl-L-histidine (0.5%)+L- citrullyl-L-arginine (0.5%).
These various conditions are prepared both in the DMEM containing 2% SVF and the DMEM containing 10% SVF.
Each condition is prepared in triplicate. The media are not renewed in the course of the experiment.
The cell density is evaluated 24 h after seeding of the cells, before the cells are brought into contact with the various study conditions (=T0), and the growth of the HaCaT cells is then evaluated on the 2nd, 5th and 7th days of culture by means of the WST-1 conversion method (reading at 450 nm).
The cell growth is objectified by measuring the cell viability at various times of the experiment. The results obtained give the percentage cell viability calculated with respect to the initial cell density at T0, for which it is estimated that the cell density is equal to 100%. The effects of the various products on cell growth are analyzed at the various times of the experiment, relative to the nontreated control at the same time of the experiment.

normal human melanocytes = experiment: comet assay on UVA-irradiated normal human melanocytes; assay type: cell-based; settings: 4 mM each
Description: Cultures of normal human melanocytes (MHNs) are prepared from fore skins of infants and of newborns suffering from phimosis. The melanocytes obtained from skin fragments are placed in MCDB 153 medium (Sigma St Louis, Mo., USA) supplemented with 30 μg/ml of bovine pituitary extract (BPE) (Life Technologies, Paisley, England), 2% of fetal calf serum (SVF) (Dominique Dutscher, Brumath, France), 16 nM of phorbol-12-myristate-13-acetate (Sigma), 5 μg/ml of insulin and 1.1 μM of hydrocortisone (Sigma). The cultures are maintained in an incubator at 37° C. and-in-an atmosphere containing 5% CO2. Pure cultures of melanocytes are obtained after 2 to 3 weeks.
All the compositions tested are solubilized in DMSO at the maximum concentrations permitted. Preliminary trials are carried out in order to determine the subtoxic concentrations on the keratinocytes. The final concentration of DMSO is always less than 2%.
The melanocytes are brought into contact with the product for 30 min at 37° C., and are then irradiated with UVA radiation. The UVA irradiations are generated by means of a Bio-Sun UV-irradiator (Vilbert Lourmat, Marne la Vallée). This device is equipped with monochromatic lamps that emit a wavelength of 312 nm and/or 365 nm. The lamps deliver a calculated energy by means of an RMW-365/312 radiometer. The energies delivered are 0.8 J/cm^2 for the UVA range. The “comet” assay is carried out immediately after exposure. Two types of controls are included in these experiments: • negative controls: melanocytes that are not treated but […]; melanocytes treated for 30 min with the composition tested, but not irradiated. • Positive control: melanocytes that are not treated but are irradiated.
After treatment with a typsin/EDTA mixture (0.05%/0.02%) for 2 to 3 minutes, the cultures are 15 recovered by centrifugation and placed in PBS buffer without Ca++ and without Mg++ (Sigma). Following a second centrifugation, the cells (4.5-5.0×10^4 cells) are suspended in 0.5% low melting point (LMP) agarose (Sigma). The mixture is directly deposited onto microscope slides coated with a prelayer of agarose (1.6%) dried overnight at ambient temperature and freshly precoated with a second layer of agarose (0.8%).
The protocol for the comet assay is that of De Meo et al., incorporating the “dry slide” technique. After the irradiations, the slides are placed in a lysis bath (2.5 M NaCl, 100 mM Na2EDTA, 10 mM Tris-HCl, pH 10, 1% of sodium sarcosinate, 1% of triton X-100 and 10% of DMSO). The cell lysis is performed at 4° C. for 60 minutes, followed by denaturation of the DNA at ambient temperature for 20 min in a strongly alkaline solution (1 mM Na2EDTA and 300 mM NaOH, pH>13.0). After electrophoresis (25 V, 300 mA) for 20 min., the slides are neutralized with the Tris-HCl buffer (0.4 M; pH 7.4) and dehydrated in absolute ethanol or methanol.
The slides are stained with ethidium bromide solution (75 μl of 2 μg/ml) and observed using a BH2-RFL fluorescence microscope (Olympus, Japan) equipped with a 20BG-W dichroic filter (excitation: 515-560 nm; emission: 590 nm) and with an Apo D-Plan 20× objective. The image analysis is carried out with a high sensitivity monochrome CCD camera (Cohu 4912-5000) coupled to a Matrox IP-8 acquisition board. The entire assembly is controlled by means of the Fenestra Komet software (Kinetic Imaging, Liverpool, UK, version 3.1).
A total of 100 cells per sample (50 cells/slide) is analyzed. The parameter used is “tail DNA”, which is defined as the percentage of DNA in the tail of the “comet”. For each series of experiments, a negative control (nonirradiated cells) and a positive control (irradiated cells without composition tested) are included.
Nonlinear regressions based on a χ^2 function are calculated directly from the TM (tail moment) distribution frequencies for each sample. Specifically, Bauer et al. have recently shown that these distributions follow a χ^2 function. […]

[2] = prior cell viability test on normal human keratinocytes; assay type: cell-based; settings: after 48 h of contact, highest 2 concentrations, 0.0001% and 0.01%
Description: In order to determine the concentrations applicable in the context of the trial, a prior cell viability test is carried out on normal human keratinocytes.
L-citrullyl-L-arginine is dissolved in water and the final concentration is fixed at 0.1%.
6 dilutions of L-citrullyl-L-arginine from 10^−4% to 10^−2% are brought into contact with the cells for 24 h and 48 h. A “water” condition is realized as a control.
For the trial, the L-citrullyl-L-arginine will be tested at the highest 2 concentrations that allow the cell viability to be maintained at a level greater than 80%, after 48 h of contact, i.e. 0.0001% and 0.01%.

[3] = NI: nonirradiated melanocytes pretreated 30 min
[4] = melanocytes irradiated with UVA (0.8 J/cm^2), pretreated 30 min

For `Nc1ncnc2c1ncn2[C@@H]1O[C@H](COP(=O)(O)OP(=O)(O)OP(=O)(O)O)[C@@H](O)[C@H]1O` [ATP, adenosine triphosphate], the “effect on endothelin-1 synthesis (in words)” value ([1]; ATP alone) was “do not show any effect”, the “change in cell viability” value (HaCaT cells; ATP alone, after 2 to 5 days of contact) was −5 to −10% and the “effect on cell viability (in words)” value (HaCaT cells; after 2 days of culture, ATP 1 μg/ml) was “substantially decreases cell viability”. The “effect on cell viability / growth (in words)” value (HaCaT cells; after 5 days of culture) was “substantially decreases cell viability”, the “OTM-χ^2” value (normal human melanocytes; [3]) was 2.08 ± 0.02 and the “Degree of protection (%)” value (normal human melanocytes; [4]) was 14.6%. For the same compound, the “OTM-χ^2” value (normal human melanocytes; [4]) was 6.31 ± 0.38.

With `N=C(N)NCCC[C@H](NC(=O)[C@@H](N)CCCNC(N)=O)C(=O)O` [L-citrullyl-L-arginine] (H-[Cit]-Arg-OH) the “effect on the secretion of endothelin-1 (in words)” value ([1]; 0.01%, conclusion) was “considerable activating effect”, the “increase in secretion of endothelin-1 compared with the irradiated water control” value (“increase in secretion” below) ([1]; UV B 20 mJ/cm^2, 24 h, 0.0001%) was 6% and the “increase in secretion” value ([1]; UV B 20 mJ/cm^2, 24 h, 0.001%) was 28%. For the same compound, the “increase in secretion” value ([1]; UV B 20 mJ/cm^2, 48 h, 0.0001%) was 4%, the “increase in secretion” value ([1]; UV B 20 mJ/cm^2, 48 h, 0.01%) was 63% and the “increase in the basal secretion of endothelin-1 compared with the water control” value (shortened to “increase in the basal secretion”) ([1]; 24 h, 0.0001%) was 20%. For the same compound, the “increase in the basal secretion” value ([1]; 24 h, 0.01%) was 70%, the “increase in the basal secretion” value ([1]; 48 h, 0.0001%) was 26% and the “increase in the basal secretion” value ([1]; 48 h, 0.01%) was 82%. For the same compound, the “cell growth relative to the nontreated control” value (HaCaT cells; after 2 days of culture, 0.1% and 0.5%) was “+5%”, the “effect on cell viability / growth (in words)” value (HaCaT cells; after 5 days of culture) was “does not stimulate cell growth” and the viability at 48 h [2] was > 80%. For the same compound, the “OTM-χ^2” value (normal human melanocytes; [3]) was 2.06 ± 0.02, the “Degree of protection (%)” value (normal human melanocytes; [4]) was 67.7% and the “OTM-χ^2” value (normal human melanocytes; [4]) was 2.22 ± 0.20.

In the case of `NCCC(=O)N[C@@H](Cc1c[nH]cn1)C(=O)O` [β-alanyl-L-histidine], the “effect on cell growth (in words)” value (HaCaT cells; after 2 days of culture, 0.1%) was “no effect on growth”, the “cell growth relative to the nontreated control” value (HaCaT cells; after 2 days of culture, 0.5%, 2% SVF) was “+22%” and the “cell growth relative to the nontreated control” value (HaCaT cells; after 5 days of culture, 0.5%) was “+12%”. The “effect on cell viability / growth (in words), conclusion” value (HaCaT cells; conclusion of the trial, at the concentrations tested) was “exerts a stimulatory effect on cell growth”.
